In paper PMC12153356, “An antisense oligomer conjugate with unpredicted bactericidal activity against Fusobacterium nucleatum” (mBio, 2025):
Square brackets hold non-standard residues; d marks the D form. Peptide text beside a SMILES is read from it. Ahx = NCCCCCC(=O)O; βAla = NCCC(=O)O

Assays:
[1] = system: F. nucleatum subsp. nucleatum ATCC 23726 (FNN23); assay: Determination of bactericidal effect by CFU spot assay; assay type: cell-based, Fusobacterium nucleatum subsp. nucleatum ATCC 23726; settings: 10 µM, 1 × 10^5 CFU/mL in MHB, spotting on BHI agar plates, up to 96 h, three replicates
Method: To investigate the bactericidal effects of PNAs an o.n. culture of FNN23 grown in ColB was diluted 1:50 in fresh ColB and grown to OD600 0.5. This culture was then diluted 1:2,500 to 1 × 10^5 CFU/mL in MHB, and 190 µL of the culture was dispensed into a transparent 96-well plate (Nunc, Thermo Fischer Scientific) together with 10 µL of respective 20× PNA stock or water and incubated at 37°C with 237 cpm shaking every 20 min. At the respective time points, 100 µL was taken out of the well, a 1:10 serial dilution series was prepared with 900 µL anoxic 1× PBS, and 5 µL of each dilution was spotted on BHI plates for CFU determination. Plates were incubated for 3 days at 37°C before taking out the plates of the anaerobic chamber for CFU counting.

HeLa cells = settings: cited from earlier work
[2] = system: F. nucleatum subsp. nucleatum ATCC 23726 (FNN23); assay: MIC determination and growth inhibition assay (broth microdilution, OD600 over time); assay type: cell-based, Fusobacterium nucleatum subsp. nucleatum ATCC 23726; settings: MHB; for Growth inhibition of FNN23: 10 µM compound, 1 × 10^5 CFU/mL, growth inhibition = no visible growth (OD600 <0.01) after 120 h
Method: To test CPP-PNA conjugates for growth inhibition, we diluted mid-exponential phase cultures of FNN23 to 1 × 10^5 colony forming units (CFUs) per milliliter in Mueller-Hinton Broth (MHB) and incubated the diluted bacteria with 10 µM of either (KFF)3K- or (RXR)4XB- conjugated PNAs targeting acpP, ftsZ or gyrA. Growth was monitored over time by OD600 measurements, with growth inhibition defined as no visible growth (OD600 <0.01) after 120 h. […] Based on these findings, we conclude that CPP-PNAs targeting fusobacterial mRNAs are not effective in antisense inhibition.
(§1) The following fusobacterial strains were used in this study: Fusobacterium nucleatum subsp. nucleatum ATCC 23726 (FNN23) acquired from the American Type Culture Collection (ATCC), F. nucleatum subsp. nucleatum ATCC 25586 (FNN25), F. nucleatum subsp. vincentii ATCC 49256 (FNV), and F. nucleatum subsp. polymorphum ATCC 10953 (FNP) acquired from the German Collection of Microorganisms and Cell Culture (DSMZ), F. nucleatum subsp. animalis 7_1 (FNA) and F. periodonticum 2_1_31 (FPE) both received as a kind gift from E. Allen-Vercoe (University of Guelph, Canada). All strains were routinely grown at 37°C in 80:10:10 (N2:H2:CO2) anaerobic conditions on 2% agar supplemented BHI plates (BHI, 1% [wt:vol] dried yeast extract, 1% [vol:vol] 50% sterile-filtered glucose solution, 5 µg/mL of hemin; 1% [vol:vol] fetal bovine serum) from frozen 20% glycerol stocks kept at −80°C. For liquid growth, the strains were cultured in Columbia broth (ColB; BD Difco). Precultures were prepared 24 h before inoculating the working culture at a 1:50 dilution in fresh ColB until OD600 0.5 was reached. Cultures were then diluted in non-cation adjusted Mueller-Hinton Broth (MHB, BD Difco) to the desired CFU/mL number. P. gingivalis (DSM 20709) was purchased from DSMZ and grown at 37°C in anaerobic conditions as mentioned above on 2% agar supplemented BHI+ plates (BHI, 1% [wt:vol] dried yeast extract, 1% [vol:vol] 50% sterile filtered glucose solution, 5 µg/ml of hemin; 10% [vol:vol] fetal bovine serum; and 1 µg/mL vitamin K3) for 4 days. For liquid growth, P. gingivalis was cultured in BHI+ medium (BHI, BD Difco supplemented with 1% [vol:vol] 50% sterile-filtered glucose solution, 5 µg/mL of hemin; 1% [vol:vol] fetal bovine serum, and 1 µg/mL vitamin K3). Precultures were prepared 24 h before inoculating the working culture at a 1:20 dilution in BHI+ until OD600 of 0.5 was reached. All plates, media, buffers, and reagents were brought into the anaerobic chamber the day before usage to ensure full oxygen depletion.
To determine the MIC value, broth microdilutions were performed according to the standard protocol with some modifications ([119]). An overnight bacterial culture was diluted in a fresh ColB medium and grown to OD600 0.5 (mid-exponential phase). […] To determine the growth inhibition of P. gingivalis, an o.n. culture grown in BHI+ was diluted 1:1,500 in MHB to obtain 1 × 10^5 CFU/mL. E. coli K12, E. coli Nissle 1917, and S. enterica o.n. cultures grown in MHB were diluted 1:1,800 in fresh MHB to obtain 1 × 10^5 CFU/mL. In total, 190 µL of diluted bacterial cultures were pipetted into a transparent 96-well plate (Nunc, Thermo Fischer Scientific) together with 10 µL of respective 20× CPP or CPP-PNA stock or water as control. Bacterial growth was monitored by measuring OD600 every 20 min with constant shaking in a plate reader (Biotek) under the normal atmospheric environment or positioned in the anaerobic chamber with double orbital shaking every 20 min prior to each measurement with 237 cpm at 37°C for 120 h.

[3] = system: F. nucleatum subsp. nucleatum ATCC 25586 (FNN25); assay: Growth inhibition assay; assay type: cell-based, Fusobacterium nucleatum subsp. nucleatum ATCC 25586; settings: 10 µM, MHB, 1 × 10^5 CFU/mL input, three replicates; listed as sequence variant 1
Description: as §1, with “For liquid growth, P. gingivalis was cultured in BHI+ medium (BHI, BD Difco supplemented with 1% [vol:vol] 50% sterile-filtered glucose solution, 5 µg/mL of hemin; 1% [vol:vol] fetal bovine serum, and 1 µg/mL vitamin K3). Precultures were prepared 24 h before inoculating the working culture at a 1:20 dilution in BHI+ until OD600 of 0.5 was reached. All plates, media, buffers, and reagents were brought into the anaerobic chamber the day before usage to ensure full oxygen depletion.” left out
(§2) To determine the MIC value, broth microdilutions were performed according to the standard protocol with some modifications ([119]). […] Bacterial growth was monitored by measuring OD600 every 20 min with constant shaking in a plate reader (Biotek) under the normal atmospheric environment or positioned in the anaerobic chamber with double orbital shaking every 20 min prior to each measurement with 237 cpm at 37°C for 120 h.

[4] = system: F. nucleatum subsp. polymorphum ATCC 10953 (FNP); assay: Growth inhibition assay; assay type: cell-based, Fusobacterium nucleatum subsp. polymorphum ATCC 10953; settings: 10 µM, MHB, 1 × 10^5 CFU/mL input, three replicates; listed as sequence variant 1
Description: as §1, with “For liquid growth, P. gingivalis was cultured in BHI+ medium (BHI, BD Difco supplemented with 1% [vol:vol] 50% sterile-filtered glucose solution, 5 µg/mL of hemin; 1% [vol:vol] fetal bovine serum, and 1 µg/mL vitamin K3). Precultures were prepared 24 h before inoculating the working culture at a 1:20 dilution in BHI+ until OD600 of 0.5 was reached. All plates, media, buffers, and reagents were brought into the anaerobic chamber the day before usage to ensure full oxygen depletion.” left out
as §2

[5] = system: F. periodonticum 2_1_31 (FPE); assay: Growth inhibition assay; assay type: cell-based, Fusobacterium periodonticum 2_1_31; settings: 10 µM, MHB, 1 × 10^5 CFU/mL input, three replicates; listed as sequence variant 1
Description: as §1, with “For liquid growth, P. gingivalis was cultured in BHI+ medium (BHI, BD Difco supplemented with 1% [vol:vol] 50% sterile-filtered glucose solution, 5 µg/mL of hemin; 1% [vol:vol] fetal bovine serum, and 1 µg/mL vitamin K3). Precultures were prepared 24 h before inoculating the working culture at a 1:20 dilution in BHI+ until OD600 of 0.5 was reached. All plates, media, buffers, and reagents were brought into the anaerobic chamber the day before usage to ensure full oxygen depletion.” left out
as §2

[6] = system: F. nucleatum subsp. animalis 7_1 (FNA); assay: Growth inhibition assay; assay type: cell-based, Fusobacterium nucleatum subsp. animalis 7_1; settings: 10 µM, MHB, 1 × 10^5 CFU/mL input, three replicates; listed as sequence variant 1
Description: as §1, with “For liquid growth, P. gingivalis was cultured in BHI+ medium (BHI, BD Difco supplemented with 1% [vol:vol] 50% sterile-filtered glucose solution, 5 µg/mL of hemin; 1% [vol:vol] fetal bovine serum, and 1 µg/mL vitamin K3). Precultures were prepared 24 h before inoculating the working culture at a 1:20 dilution in BHI+ until OD600 of 0.5 was reached. All plates, media, buffers, and reagents were brought into the anaerobic chamber the day before usage to ensure full oxygen depletion.” left out
as §2

In the case of `N=C(N)NCCC[C@H](NC(=O)CCCCCNC(=O)[C@H](CCCNC(=N)N)NC(=O)[C@H](CCCNC(=N)N)NC(=O)CCCCCNC(=O)[C@H](CCCNC(=N)N)NC(=O)[C@H](CCCNC(=N)N)NC(=O)CCCCCNC(=O)[C@H](CCCNC(=N)N)NC(=O)[C@H](CCCNC(=N)N)NC(=O)CCCCCNC(=O)[C@@H](N)CCCNC(=N)N)C(=O)NCCCCCC(=O)NCCC(=O)O` [(RXR)4XB, reference compound] (H-R[Ahx]RR[Ahx]RR[Ahx]RR[Ahx]R[Ahx][βAla]-OH; N-terminus and C-terminus assumed), the “Bactericidal effect (viable cells, CFU) on FNN23” value (from here on “Bactericidal effect”) [1] is reported as “no bactericidal effect”.
For `CC[C@H](C)[C@H](NC(=O)[C@H](CCCNC(=N)N)NC(=O)[C@H](CCCNC(=N)N)NC(=O)[C@H](CC(C)C)NC(=O)[C@H](Cc1c[nH]c2ccccc12)NC(=O)[C@H](C)NC(=O)[C@H](CCCCN)NC(=O)[C@@H](NC(=O)[C@H](CCCNC(=N)N)NC(=O)[C@H](CCCNC(=N)N)NC(=O)[C@H](CC(C)C)NC(=O)[C@@H](N)Cc1c[nH]c2ccccc12)[C@@H](C)CC)C(=O)N[C@@H](CCCCN)C(=O)N[C@@H](C)C(=O)N[C@@H](CC(C)C)C(=O)N[C@@H](CC(N)=O)C(=O)N[C@@H](CCCNC(=N)N)C(=O)N[C@@H](CCC(N)=O)C(=O)N[C@@H](CC(C)C)C(=O)NCC(=O)N[C@H](C(=O)N[C@@H](C)C(=O)N[C@@H](C)C(=O)O)C(C)C` [Seq471], the “Cytotoxicity in HeLa cells” value (HeLa cells) is listed as “without notable cytotoxicity”.
With “GACATAATTGT [PNA79, FUS79 without the (RXR)4XB module, PNA …]” the “Growth inhibition of FNN23” value [2] was “only the original FUS79 as well as sequence variant 1 conjugated to full-length (RXR)4XB inhibited the growth”.
In the case of “KFFKFFKFFK (GACATAATTGT; all phosphorodiamidate morpholino (PMO); (KFF)3K peptide conjugated via azide-cyclooctyne click, attachment end not given here) [(KFF)3K-PMO79, (KFF)3K conjugated to 11mer PMO …]”, the “Growth inhibition of FNN23” value [2] is reported as “did not inhibit the growth”.
In the case of “KFFKFFKFFK [(KFF)3K-gyrA_11mer_2, (KFF)3K conjugated to 11mer PNA … targeting gyrA]”, the “Growth delay of FNN23” value ([2]; 10 µM (KFF)3K-PNA, 1 × 10^5 CFU/mL (Fig. 2C)) is reported as ~ 40 h and the “Growth retardation of FNN23 at higher concentrations” value ([2]; concentrations higher than 10 µM, 1 x 10^5 CFU per ml (Fig. S1C)) is reported as “did not lead to further growth retardation”.
For Polymyxin B [reference compound], the “Bactericidal effect” value [1] was “fully diminished CFUs after 96 h”.
For “RXRRXRRXRRXRXB [(RXR)4XB-ftsZ, (RXR)4XB conjugated to 10mer PNA … targeting ftsZ]”, the “Bactericidal effect” value ([1]; listed as (RXR)4XB-PNA targeting ftsZ) was “could not observe a CFU reduction”.
With “RXRRXRRXRRXRXB [(RXR)4XB-non-targeting-PMO, (RXR)4XB conjugated to non-targeting 11mer PMO …]” the “Growth inhibition of FNN23” value ([2]; listed as (RXR)4XB-conjugated non-targeting PMO control) was “did not inhibit the growth”.
For “RXRRXRRXRRXRXB [(RXR)4XB-trpB, (RXR)4XB conjugated to 11mer PNA … complementary to trpB TIR]”, the “Growth inhibition of FNN23” value [2] was “did not result in growth impairment”.
With RXRRXRRXRRXRXB [FUS79 variant 1] the “Growth inhibition of FNN25” value [3] was “effective in strains susceptible to FUS79”, the “Growth inhibition of FNP” value [4] was “effective in strains susceptible to FUS79” and the “Growth inhibition of FPE” value [5] was “effective in strains susceptible to FUS79”. For the same compound, the “Growth inhibition of FNA” value [6] was “effective in strains susceptible to FUS79” and the “Growth inhibition of FNN23” value ([2]; listed as sequence variant 1) was “inhibited the growth”.
For “RXRRXRRXRXB [(RXR)3XB-PNA79, PNA … with shortened CPP module RXRRXRRXRXB]”, the “Growth inhibition of FNN23” value [2] was “only the original FUS79 as well as sequence variant 1 conjugated to full-length (RXR)4XB inhibited the growth”.
